The test system of this experiment is AKR/Lw mice, AKR lymphoma ip, median survival T/C. Kind of experiment: NCI In Vivo Anticancer Drug Screen. Data for tumor model Lymphoma AKR (Transplanted) (intraperitoneal) in AKR/Lw mice. The following applies: endpoint: median survival time, higher = longer survival. How it is done: The antitumor activity of compounds was measured in mice bearing transplantable tumors. Survival or tumor size were measured and the results are expressed as the measurement made in the treated group (T) divided by the measurement made in the vehicle treated control group (C). The tumor model used in this assay is Lymphoma AKR (Transplanted) (intraperitoneal) in AKR/Lw mice

The mark [1] stands for this setting: dose: 100.0 mg/kg/injection, schedule: Q01DX001 (ip), vehicle: Klucel (hydroxypropylcellulose) (HPC).
The mark [2] stands for this setting: dose: 100.0 mg/kg/injection, schedule: Q04DX003 (ip), vehicle: Klucel (hydroxypropylcellulose) (HPC).
Setting [3] is: dose: 200.0 mg/kg/injection, schedule: Q04DX003 (ip), vehicle: Klucel (hydroxypropylcellulose) (HPC).
Setting [4] is: dose: 400.0 mg/kg/injection, schedule: Q01DX001 (ip), vehicle: Klucel (hydroxypropylcellulose) (HPC).
[5] abbreviates: dose: 400.0 mg/kg/injection, schedule: Q04DX003 (ip), vehicle: Klucel (hydroxypropylcellulose) (HPC).
The mark [6] stands for this setting: dose: 600.0 mg/kg/injection, schedule: Q01DX001 (ip), vehicle: Klucel (hydroxypropylcellulose) (HPC).
Setting [7] is: dose: 200.0 mg/kg/injection, schedule: Q01DX001 (ip), vehicle: Klucel (hydroxypropylcellulose) (HPC).

Values joined by “and” are separate entries in the source; they are usually repeats but may differ in a detail not shown here. Equal entries are not always repeated. Inconclusive results and toxic doses are left out.

For `S=c1nc[nH]c2nc[nH]c12`, the T/C was 110 % of control (dose: 6.25 mg/kg/injection, schedule: Q01DX015 (ip), vehicle: Klucel (hydroxypropylcellulose) (HPC)); 94 % of control (dose: 10.0 mg/kg/injection, schedule: Q01DX009 (ip), vehicle: saline); 100 % of control (dose: 12.5 mg/kg/injection, schedule: Q01DX015 (ip), vehicle: Klucel (hydroxypropylcellulose) (HPC)); 94 % of control and 102 % of control and 105 % of control (dose: 20.0 mg/kg/injection, schedule: Q01DX009 (ip), vehicle: saline); 100 % of control (dose: 25.0 mg/kg/injection, schedule: Q01DX015 (ip), vehicle: Klucel (hydroxypropylcellulose) (HPC)); 104 % of control and 109 % of control and 112 % of control (dose: 30.0 mg/kg/injection, schedule: Q01DX001 (ip), vehicle: saline). Also, the T/C is 100 % of control (dose: 30.0 mg/kg/injection, schedule: Q01DX009 (ip), vehicle: saline); 102 % of control (dose: 30.0 mg/kg/injection, schedule: Q04DX003 (ip), vehicle: saline); 104 % of control (dose: 37.5 mg/kg/injection, schedule: Q01DX009 (ip), vehicle: saline); 94 % of control and 97 % of control and 113 % of control (dose: 40.0 mg/kg/injection, schedule: Q01DX009 (ip), vehicle: saline); 100 % of control (dose: 50.0 mg/kg/injection, schedule: Q01DX009 (ip), vehicle: Klucel (hydroxypropylcellulose) (HPC)); 120 % of control (dose: 50.0 mg/kg/injection, schedule: Q01DX009 (ip), vehicle: saline). Besides, the T/C runs as follows: (dose: 50.0 mg/kg/injection, schedule: Q01DX015 (ip), vehicle: Klucel (hydroxypropylcellulose) (HPC)) 92 % of control and 93 % of control; (dose: 50.0 mg/kg/injection, schedule: Q04DX003 (ip), vehicle: saline) 100 % of control; (dose: 60.0 mg/kg/injection, schedule: Q01DX001 (ip), vehicle: saline) 97 % of control and 111 % of control and 113 % of control; (dose: 60.0 mg/kg/injection, schedule: Q01DX009 (ip), vehicle: saline) 96 % of control; (dose: 60.0 mg/kg/injection, schedule: Q04DX003 (ip), vehicle: saline) 119 % of control; (dose: 75.0 mg/kg/injection, schedule: Q01DX001 (ip), vehicle: saline) 113 % of control. The T/C is 109 % of control (dose: 75.0 mg/kg/injection, schedule: Q01DX009 (ip), vehicle: saline); 94 % of control and 123 % of control (dose: 80.0 mg/kg/injection, schedule: Q01DX009 (ip), vehicle: saline); 96 % of control under setting [1]; 90 % of control (dose: 100.0 mg/kg/injection, schedule: Q01DX009 (ip), vehicle: Klucel (hydroxypropylcellulose) (HPC)); 93 % of control (dose: 100.0 mg/kg/injection, schedule: Q01DX009 (ip), vehicle: saline); 97 % of control and 100 % of control and 108 % of control under setting [2]. Further, the T/C (dose: 100.0 mg/kg/injection, schedule: Q04DX003 (ip), vehicle: saline) was 102 % of control and 123 % of control; the T/C (dose: 120.0 mg/kg/injection, schedule: Q01DX001 (ip), vehicle: saline) was 93 % of control and 104 % of control and 222 % of control; the T/C (dose: 120.0 mg/kg/injection, schedule: Q04DX003 (ip), vehicle: saline) was 100 % of control; the T/C (dose: 150.0 mg/kg/injection, schedule: Q01DX001 (ip), vehicle: Klucel (hydroxypropylcellulose) (HPC)) was 102 % of control and 112 % of control; the T/C (dose: 150.0 mg/kg/injection, schedule: Q01DX009 (ip), vehicle: saline) is 100 % of control; the T/C (dose: 175.0 mg/kg/injection, schedule: Q01DX001 (ip), vehicle: Klucel (hydroxypropylcellulose) (HPC)) was 100 % of control. The T/C is 104 % of control (dose: 200.0 mg/kg/injection, schedule: Q01DX001 (ip), vehicle: saline); 110 % of control (dose: 200.0 mg/kg/injection, schedule: Q01DX009 (ip), vehicle: saline); 90 % of control under setting [3]; 90 % of control (dose: 200.0 mg/kg/injection, schedule: Q04DX003 (ip), vehicle: saline); 106 % of control (dose: 300.0 mg/kg/injection, schedule: Q01DX001 (ip), vehicle: Klucel (hydroxypropylcellulose) (HPC)); 119 % of control (dose: 300.0 mg/kg/injection, schedule: Q01DX001 (ip), vehicle: saline). Further, the T/C reads like this: under setting [4], 113 % of control; (dose: 400.0 mg/kg/injection, schedule: Q01DX001 (ip), vehicle: saline) 102 % of control; under setting [5], 121 % of control; under setting [6], 115 % of control.

Consider `COc1ccc(Br)cc1/C=N\NS(=O)(=O)c1ccc(C)cc1`, for which the T/C by setting is: under setting [1], 106 % of control; under setting [2], 106 % of control; under setting [7], 100 % of control; under setting [3], 86 % of control; under setting [4], 100 % of control; under setting [5], 86 % of control.

`CC(=O)c1cccc(N)c1`: the T/C is, setting by setting: under setting [1], 93 % of control and 105 % of control; under setting [7], 91 % of control; under setting [4], 94 % of control and 122 % of control; under setting [6], 94 % of control.

In the case of `OC1(C#CC2(O)c3ccccc3-c3ccccc32)c2ccccc2-c2ccccc21`, the T/C reads like this: under setting [1], 105 % of control; under setting [7], 108 % of control; under setting [4], 102 % of control.

Take `O=NN(CCCl)C(=O)NC1CC2CCC1C2` (stereo not given): the T/C is 115 % of control (dose: 0.31 mg/kg/injection, schedule: Q04DX004 (ip), vehicle: Klucel (hydroxypropylcellulose) (HPC)); 93 % of control (dose: 0.62 mg/kg/injection, schedule: Q04DX004 (ip), vehicle: Klucel (hydroxypropylcellulose) (HPC)); 102 % of control (dose: 0.75 mg/kg/injection, schedule: Q04DX008 (ip), vehicle: Klucel (hydroxypropylcellulose) (HPC)); 112 % of control (dose: 1.25 mg/kg/injection, schedule: Q04DX004 (ip), vehicle: Klucel (hydroxypropylcellulose) (HPC)); 108 % of control (dose: 1.5 mg/kg/injection, schedule: Q04DX008 (ip), vehicle: Klucel (hydroxypropylcellulose) (HPC)); 112 % of control (dose: 2.5 mg/kg/injection, schedule: Q04DX004 (ip), vehicle: Klucel (hydroxypropylcellulose) (HPC)). Besides, the T/C (dose: 5.0 mg/kg/injection, schedule: Q04DX004 (ip), vehicle: Klucel (hydroxypropylcellulose) (HPC)) was 120 % of control; the T/C (dose: 5.0 mg/kg/injection, schedule: Q04DX008 (ip), vehicle: Klucel (hydroxypropylcellulose) (HPC)) is 150 % of control; the T/C (dose: 10.0 mg/kg/injection, schedule: Q04DX004 (ip), vehicle: Klucel (hydroxypropylcellulose) (HPC)) was 114 % of control; the T/C (dose: 20.0 mg/kg/injection, schedule: Q04DX004 (ip), vehicle: Klucel (hydroxypropylcellulose) (HPC)) is 114 % of control.

As for `CCCCC(C(=O)OCC)C(CCC1CCCCC1)(C(=O)OCC)C(=O)OCC` (stereo not given), the T/C is, setting by setting: under setting [1], 110 % of control; under setting [7], 104 % of control.

Source of the values: PubChem BioAssay AID190 (DTP/NCI, 2004).
